According to patent US12037415B2, “Peptide and pharmaceutical composition for treating an eye disease comprising the same as an active pharmaceutical ingredient” (YuYu Pharma, Inc., priority 2017, dated 2024):
Non-standard residues stand in square brackets, D forms with d. Residues, ends and D or L forms follow the SMILES beside them. No end group written: not given here. ξ: configuration not given here. Hyp = O=C(O)[C@@H]1C[C@@H](O)CN1; Ile(3ξ) = CCC(C)[C@H](N)C(=O)O; Sar = CNCC(=O)O

How the values were obtained:
[1] = test system: rats with dry eye syndrome (extraorbital lacrimal gland excision, ELGE); assay: Amount of tear secretion (Schirmer test, cobalt chloride paper) in rats with ELGE-induced dry eye syndrome; type: in vivo, rat; conditions: for Amount of tear secretion as compared with the ELGE control group: 0.3% solution (DS 3%), administration for 14 days
From the text: (§1) In order to evaluate the eye protection effect on dry eye syndrome by YDE-001 to YDE-028 prepared in Working Example 1, a total of 320 Sprague-Dawley-type male rats (OrientBio, Seungnam, Korea) were adapted for 7 days. Thereafter, dry eye syndrome was induced in 264 test rats through extraorbital lacrimal gland excision (hereinafter, ELGE). 8 test rats without the eye abnormality were subjected to a sham operation as a control group.
(§2) The rats were systemically anesthetized by inhaling a mixed gas of 2% to 3% of isoflurane (Hana Pharm. Co., Hwasung, Korea), 70% of N2O, and 28.6% of O2 using a rodent anesthesia machine (Surgivet, Waukesha, Wis., USA) and a ventilator (Model 687, Harvard Apparatus, Cambridge, UK). Thereafter, the extraorbital lacrimal gland located in the subdermal area above the masseter muscle and under the optic nerve was excised through a transverse incision in a size of 10 mm on the anterior part of the left ear tragus. The skin was sutured by a general method. […] After 6 days following the ELGE operation, confirmation was performed through the Schirmer test by measuring the amount of tear secretion whether dry eye syndrome had been induced. Meanwhile, each rat of the control group with the sham operation was checked for the presence and location of the extraorbital lacrimal gland through a skin incision, and the skin was then sutured without the excision thereof (FIG. 134).
(§3) In addition, in order to evaluate the eye protection effect on dry eye syndrome by YDE-029 to YDE-043 prepared in Working Example 1, a total of 200 Sprague-Dawley-type male rats (OrientBio, Seungnam, Korea) were adapted for 7 days. Dry eye syndrome was induced in 165 test rats through the ELGE. 8 test rats without the eye abnormality were subjected to the sham operation as a control group. The ELGE was carried out as described above.
(§4) For YDE-001 to YDE-028, YY-102 and the 28 YDE-series were each dissolved in physiological saline at a concentration of 3 mg/ml and administered at a dose of 5 μl/eye at 9:30 am and 3:30 pm daily for 14 days after 7 days from the ELGE operation for a total of 28 times. The DS solution was dissolved in physiological saline at a concentration of 30 mg/ml and administered at a dose of 5 μl/eye twice a day for 14 days after 7 days from the ELGE operation for a total of 28 times. For the sham control and the ELGE control groups, the same stimulation as the administration was applied. In order to prevent excessive eye dryness, the same volume of physiological saline was applied in the same manner in place of the test substances.
as §4, with “Further, For YDE-029” for “For YDE-001”, “Further, For YDE-029 to YDE-043,” for “For YDE-001 to YDE-028,”, “YDE-029 to YDE-043, YY-102 and” for “YDE-001 to YDE-028, YY-102 and”, “and the 15 YDE-series were” for “and the 28 YDE-series were”, “the test substances (FIG. 137).” for “the test substances.”
After 6 days from the ELGE surgery, the changes in the amount of tear secretion were measured at day 7 and day 14 after the administration of YDE-001 to YDE-043. The amount of tear secretion was measured by the […] travel distance of tears absorbed by cobalt chloride paper in a size of 1×15 mm (Toyo Roshi Kaisha, Japan).
The cobalt chloride paper was placed in the lateral canthus of a rat for 60 seconds to absorb tears (FIG. 139). The length of the area absorbed from the corner of the cobalt chloride paper was measured with an electronic digital caliper (Mytutoyo, Tokyo, Japan) (FIG. 138).

[2] = test system: cornea of rats with dry eye syndrome (ELGE); assay: Corneal permeability of fluorescent dye (corneal damage) in rats with ELGE-induced dry eye syndrome; type: in vivo, rat; conditions: 0.3% solution, day 14 after the administration
From the text: as §1, §2, §3, §4
as §4, with “Further, For YDE-029” for “For YDE-001”, “Further, For YDE-029 to YDE-043,” for “For YDE-001 to YDE-028,”, “YDE-029 to YDE-043, YY-102 and” for “YDE-001 to YDE-028, YY-102 and”, “and the 15 YDE-series were” for “and the 28 YDE-series were”, “the test substances (FIG. 137).” for “the test substances.”
After YDE-001 to YDE-028 were each administered to the eyes […], the changes in the corneal permeability were checked.
In order to measure the corneal permeability, Zolethyl 50™ (Virbac Lab., Carros, France), an animal anesthetic, was intraperitoneally injected at a dose of 25 mg/kg. Thereafter, saline containing a 1% (v/v) fluorescent solution (fluorescein sodium salt, Tokyo Kasei Kogyo Co., Tokyo, Japan) was applied to the eyes at a dose of 5 μl/eye. The eyes thus treated were closed and fixed with a tape. After 1 hour, the remaining fluorescent solution was removed using a cotton swab (FIG. 142). […]

[3] = Stability in aqueous solution, amount of related substances under long-term storage conditions; type: physicochemical; conditions: glass vial, 25° C., 75% RH
Experimental: In order to confirm the stability of each test substance in an aqueous solution, […] of each sample was dissolved in 1 ml of water to a concentration of 1 mg/ml, which was then charged to a glass vial, plugged with a rubber cap, sealed with an aluminum cap, and stored under long-term storage conditions (25° C., 75% RH). The stability of the test substance was evaluated by measuring the amount of related substances at the time of one week, two weeks, four weeks, eight weeks, and twelve weeks under the long-term storage conditions.

[4] = study of YDE-001 to YDE-028 (Table 16)

Compound	Amount of related substances (%; after 12 weeks) [3] [%]	Amount of tear secretion as compared with the ELGE control group ([1]; study of YDE-001 to YDE-028)	Permeability of fluorescent dye (%) [2, 4] [%]	Amount of tear secretion as compared with the ELGE control group ([1]; study of YDE-029 to YDE-043)	Permeability of fluorescent dye (%) ([2]; study of YDE-029 to YDE-043 (Table 17))	Tear Volumes, Day 7 ([1]; ELGE rats, 0.3% solution, 5 μl/eye twice daily, day 7 of administration, study of YDE-001 to YDE-028 (Table 14)) [mm^3]	Tear Volumes, Day 14 ([1]; ELGE rats, 0.3% solution, 5 μl/eye twice daily, day 14 of administration, study of YDE-001 to YDE-028 (Table 14)) [mm^3]
CC(C)C[C@H](NC(=O)CNC(=O)[C@@H](NC(=O)[C@H](CCC(N)=O)NC(=O)CNC(=O)[C@@H]1C[C@@H](O)CN1)C(C)C)C(=O)N[C@@H](C)C(=O)NCC(=O)N1CCC[C@H]1C(=O)N[C@@H](CCCCN)C(=O)O [YDE-009, HyP-Gly-Gln-Val-Gly-Leu-Ala-Gly-Pro-Lys] (H-[Hyp]GQVGLAGPK-OH)	4.71	did not show any significant changes	41.50 ± 7.86	–	–	–	–
CCC(C)[C@H](NC(=O)[C@H](CCC(N)=O)NC(=O)CNC(=O)[C@@H]1C[C@@H](O)CN1)C(=O)NCC(=O)N[C@@H](CC(C)C)C(=O)N[C@@H](C)C(=O)NCC(=O)N1CCC[C@H]1C(=O)N[C@@H](CCCCN)C(=O)O (stereo partly drawn) [YDE-010, HyP-Gly-Gln-Ile-Gly-Leu-Ala-Gly-Pro-Lys] (H-[Hyp]GQ[Ile(3ξ)]GLAGPK-OH)	4.39	did not show any significant changes	49.29 ± 12.06	–	–	–	–
CC(C)C[C@H](NC(=O)[C@H](CC(C)C)NC(=O)[C@H](CC(=O)O)NC(=O)[C@H](CCC(N)=O)NC(=O)CNC(=O)[C@@H]1C[C@@H](O)CN1)C(=O)N[C@@H](C)C(=O)NCC(=O)N1CCC[C@H]1C(=O)N[C@@H](CCCCN)C(=O)O [YDE-017, HyP-Gly-Gln-Asp-Leu-Leu-Ala-Gly-Pro-Lys] (H-[Hyp]GQDLLAGPK-OH)	11.88	did not show any significant changes	39.76 ± 7.42	–	–	–	–
CC(C)C[C@H](NC(=O)CNC(=O)[C@H](CC(C)C)NC(=O)[C@H](CCC(N)=O)NC(=O)CNC(=O)[C@@H]1C[C@@H](O)CN1)C(=O)N[C@@H](C)C(=O)O [YDE-041, HyP-Gly-Gln-Leu-Gly-Leu-Ala] (H-[Hyp]GQLGLA-OH)	–	–	–	did not show any significant changes	46.38 ± 26.65	–	–
YDE-025: peptide of SEQ ID NO: 31, the compound represented by Formula 10 ([Hyp]GQD[Sar]LAGPK; ends and bridges not checked)	5.17	did not show any significant changes	47.10 ± 11.45	–	–	3.21 ± 0.72	4.72 ± 2.19

Continued, in another order:

Amount of related substances (%; after 12 weeks) [3] [%]	Compound	Amount of tear secretion as compared with the ELGE control group ([1]; study of YDE-001 to YDE-028)	Permeability of fluorescent dye (%) [2, 4] [%]	Amount of tear secretion as compared with the ELGE control group ([1]; study of YDE-029 to YDE-043)	Permeability of fluorescent dye (%) ([2]; study of YDE-029 to YDE-043 (Table 17))	Tear Volumes, Day 7 ([1]; ELGE rats, 0.3% solution, 5 μl/eye twice daily, day 7 of administration, study of YDE-001 to YDE-028 (Table 14)) [mm^3]	Tear Volumes, Day 14 ([1]; ELGE rats, 0.3% solution, 5 μl/eye twice daily, day 14 of administration, study of YDE-001 to YDE-028 (Table 14)) [mm^3]
13.43	CC(C)C[C@H](NC(=O)[C@H](Cc1ccccc1)NC(=O)[C@H](CC(=O)O)NC(=O)[C@H](CCC(N)=O)NC(=O)CNC(=O)[C@@H]1C[C@@H](O)CN1)C(=O)N[C@@H](C)C(=O)NCC(=O)N1CCC[C@H]1C(=O)N[C@@H](CCCCN)C(=O)O [YDE-019, HyP-Gly-Gln-Asp-Phe-Leu-Ala-Gly-Pro-Lys] (H-[Hyp]GQDFLAGPK-OH)	did not show any significant changes	40.39 ± 12.57	–	–	–	–
21.54	CC(C)C[C@H](NC(=O)[C@H](Cc1ccc(O)cc1)NC(=O)[C@H](CC(=O)O)NC(=O)[C@H](CCC(N)=O)NC(=O)CNC(=O)[C@@H]1C[C@@H](O)CN1)C(=O)N[C@@H](C)C(=O)NCC(=O)N1CCC[C@H]1C(=O)N[C@@H](CCCCN)C(=O)O [YDE-020, HyP-Gly-Gln-Asp-Tyr-Leu-Ala-Gly-Pro-Lys] (H-[Hyp]GQDYLAGPK-OH)	did not show any significant changes	47.84 ± 13.47	–	–	–	–
21.33	CC(C)C[C@H](NC(=O)[C@H](Cc1c[nH]c2ccccc12)NC(=O)[C@H](CC(=O)O)NC(=O)[C@H](CCC(N)=O)NC(=O)CNC(=O)[C@@H]1C[C@@H](O)CN1)C(=O)N[C@@H](C)C(=O)NCC(=O)N1CCC[C@H]1C(=O)N[C@@H](CCCCN)C(=O)O [YDE-021, HyP-Gly-Gln-Asp-Trp-Leu-Ala-Gly-Pro-Lys] (H-[Hyp]GQDWLAGPK-OH)	did not show any significant changes	37.00 ± 10.49	–	–	–	–
19.23	CC(C)C[C@H](NC(=O)[C@H](Cc1c[nH]cn1)NC(=O)[C@H](CC(=O)O)NC(=O)[C@H](CCC(N)=O)NC(=O)CNC(=O)[C@@H]1C[C@@H](O)CN1)C(=O)N[C@@H](C)C(=O)NCC(=O)N1CCC[C@H]1C(=O)N[C@@H](CCCCN)C(=O)O [YDE-022, HyP-Gly-Gln-Asp-His-Leu-Ala-Gly-Pro-Lys] (H-[Hyp]GQDHLAGPK-OH)	did not show any significant changes	47.82 ± 10.01	–	–	–	–
12.74	COC(=O)C[C@H](NC(=O)[C@H](CCC(N)=O)NC(=O)CNC(=O)[C@@H]1C[C@@H](O)CN1)C(=O)NCC(=O)N[C@@H](CC(C)C)C(=O)N[C@@H](C)C(=O)NCC(=O)N1CCC[C@H]1C(=O)N[C@@H](CCCCN)C(=O)O [YDE-027, HyP-Gly-Gln-Asp(Me)-Gly-Leu-Ala-Gly-Pro-Lys] (H-[Hyp]GQD(OMe)GLAGPK-OH)	did not show any significant changes	50.24 ± 11.94	–	–	–	–
1.15	CNC(=O)C[C@H](NC(=O)[C@H](CCC(N)=O)NC(=O)CNC(=O)[C@@H]1C[C@@H](O)CN1)C(=O)NCC(=O)N[C@@H](CC(C)C)C(=O)N[C@@H](C)C(=O)NCC(=O)N1CCC[C@H]1C(=O)N[C@@H](CCCCN)C(=O)O [YDE-028, HyP-Gly-Gln-Asn(Me)-Gly-Leu-Ala-Gly-Pro-Lys] (H-[Hyp]GQD(NHMe)GLAGPK-OH)	did not show any significant changes	41.17 ± 10.25	–	–	–	–
